Consider 2 molecules from patent publication US20240342190A1, “METHODS FOR REDUCING ISCHEMIA-REPERFUSION INJURIES” (BioMimetix JV, LLC, priority 2023, published 2024).

Entries after “also recorded” stand apart in the source; their conditions may differ.

One series relates to blood brain barrier. Put plainly: Experiment 7: blood brain barrier permeability after intracarotid infusion (Evans blue content). The note with it: non-stroke rats, vs vehicle. As for the experimental part: 30 μg/kg of BMX-001 (n=4), or same amount of saline (n=4) or mannitol (n=4) was given to normal male Wistar rats through the carotid artery. The rats received 100 μl 2% Evans blue intravenous infusion 30 min later and then intracardially perfused using 100 ml normal saline at 30 min following infusion. Brains were harvested and the Evans blue content was measured spectrophotometrically.

Series [1] has as its system animal model of ischemic stroke. The note with it: given 6 hours after reperfusion; cited from earlier work.

Consider `OC[C@@H](O)[C@@H](O)[C@H](O)[C@H](O)CO` [Mannitol, reference compound], for which the “Evans blue content in brain / blood brain barrier permeability, in words” value in the series on blood brain barrier was “significant increase of Evans blue content; also recorded: did increase the blood brain barrier (BBB) permeability”.
As for `CC[n+]1ccccc1-c1c2nc(c(-c3cccc[n+]3CC)c3ccc([n-]3)c(-c3cccc[n+]3CC)c3nc(c(-c4cccc[n+]4CC)c4ccc1[n-]4)C=C3)C=C2.[Mn+3]` [MnTE-2-PyP^5+], the “Protection in ischemic stroke, in words” value in series [1] is given as “provided protection”.
